Measured values from patent US5733526A, “Hydrocarbon oil/fluorochemical preparations and methods of use” (priority 1995, dated 1998).

Assays:
[1] = Micelle formation in perfluorooctanes by FTIR (C-H stretching frequency); assay type: physicochemical; conditions: in F-octanes
Experimental: A series of solutions of CF3 (CF2) 7 (CH2) 15 CH3 (F8H16; 0.02 mol/L to 0.2 mol/L) were prepared in F-octanes (purity≥98%) and the frequency of the carbon to hydrogen (--C--H) stretching mode (T=50° C.) measured using FTIR (Fourier Transform Infrared Spectroscopy). The formation of F8H16 micelles in a fluorocarbon continuous phase results in the transfer of the F8H16 hydrocarbon groups from a fluorocarbon rich environment in the molecular solution to a hydrocarbon rich environment at the interior of the micelles. The occurrence of this phase change can be measured as a change in the FTIR stretching frequency for the carbon-hydrogen bonds in the --CH2 groups of the FmHn molecules. […] The inflection point in the curve confirmed the existence of F8H16 micelles and was used to define the critical micelle concentration at about 0.05 mol/L.
A series of solutions of CF3 (CF2) 5 (CH2) 13 CH3 (F6H14; 0.02 mol/L to 0.2 mol/L) were prepared in F-octanes (purity≥98%) and the frequency of the carbon to hydrogen (--C--H) stretching mode (T=25° C.) measured using FTIR. The formation of F6H14 micelles was measured as a change in the FTIR stretching frequency for the carbon-hydrogen bonds in the --CH2 groups of the FmHn molecules. […] The inflection point in the curve confirmed the existence of F6H14 micelles and was used to define the critical micelle concentration at about 0.1 mol/L.

[2] = cited from earlier work; for Log Po/w: octanol/water
[3] = Titration of hydrocarbon oil into F-octanes until phase separation; solubilization by diblock dispersing agent; conditions: for amount of hydrocarbon oil at which phase separation occurred: titrated into F-Octanes (8.82 g), before dispersing agent

CCCCCCCCCCCCCCCCC(F)(F)C(F)(F)C(F)(F)C(F)(F)C(F)(F)C(F)(F)C(F)(F)C(F)(F)F [Example F8H16, 1-(F-octyl)hexadecane]
critical micelle concentration ([1]; T=50° C.): about 0.05 mol/L

CCCCCCCCCCCCCCC(F)(F)C(F)(F)C(F)(F)C(F)(F)C(F)(F)C(F)(F)F [Example F6H14]
critical micelle concentration ([1]; T=25° C.): about 0.1 mol/L

FC(F)(F)C(Cl)Br (stereo not drawn) [halothane]
Octanol/water partition coefficient Po/w [2]: 2.00 × 10^2
Log Po/w [2]: 2.30

CCCCCC [n-hexane]
amount of hydrocarbon oil at which phase separation occurred [3]: 1.70 mL
solubilization in F-Octanes ([3]; with F8H16 (7.82%, w/v)): 36.5 %, v/v

CCCCNc1ccc(C(=O)OCCN(C)C)cc1 [tetracaine]
Octanol/water partition coefficient Po/w [2]: 79.4

Clc1cccc(Cl)c1N=C1NCCN1 [^3 H-clonidine]
Octanol/water partition coefficient Po/w [2]: 25.1

COC(=O)c1ccccc1O [methyl salicylate]
amount of hydrocarbon oil at which phase separation occurred [3]: 0.01 to 0.02 mL
solubilization in F-Octanes ([3]; with F6H14 (17.3%, w/v)): 2.2 %, v/v

CC(C)(C)NCC(O)COc1cccc2c1CCCC2=O (stereo not drawn) [^14 C-bunolol]
Octanol/water partition coefficient Po/w [2]: 2.51 × 10^2

COc1ccc(C(=O)CC(=O)c2ccc(C(C)(C)C)cc2)cc1 [^3 H-parsol 1789]
Octanol/water partition coefficient Po/w [2]: 5.0 × 10^6
Log Po/w [2]: 6.7

CCCCC(CC)COC(=O)c1ccc(N(C)C)cc1 (stereo not drawn) [^14 C-padimate-o]
Octanol/water partition coefficient Po/w [2]: 3.98 × 10^6

CC(=O)[C@@]1(O)CC[C@H]2[C@@H]3C[C@H](C)C4=CC(=O)C=C[C@]4(C)[C@@]3(F)[C@@H](O)C[C@@]21C [^3 H-fluorometholone]
Octanol/water partition coefficient Po/w [2]: 1.26 × 10^2
